Assays:
[1] = tested on: SPANX-B-specific CD4^+ T cell lines; test: IFNγ secretion (ELISA) by CD4+ T cell lines stimulated with antigen-pulsed autologous DCs; type: cell-based, human; conditions: for IFNγ secretion by SPANX-B-specific CD4+ T cell lines, fine mapping of the epitope: autologous DCs pulsed with peptide, lines generated to SPANX-B protein, Pep-1 or Pep-G1, FIG. 3D; for IFNγ secretion by CD4+ T cell lines on stimulation with pulsed DCs: CD4+ T cell lines generated with SPANX-B protein-treated autologous DCs, FIGS. 3A-C; for IFNγ secretion by SPANX-B-specific CD4+ T cell line: irradiated mature DCs pulsed with 1 μg/ml peptide, FIG. 3A; for generation of SPANX-B-specific CD4+ T cell lines using the peptide: lines recognized DCs incubated with SPANX-B protein dose-dependently, FIGS. 3C, 3D
Experimental: T cell stimulation: To generate CD4^+ T cell lines, CD4^+ T cells (2×10^6) were stimulated with autologous DC pulsed with either SPANX-B protein (2 μg/mL), or with SPANX-B peptides (10 μg/mL) in the presence of IL-2 (20 U/mL) for seven days. T cells were re-stimulated once every week two times. To generate CD8^+ CTL lines, 2×10^6 CD8^+ T cells were stimulated with autologous DC pulsed with either SPANX-B protein (2 μg/mL) and SPANX-B peptides (10 μg/mL) in the presence of IL-2 (20 U/mL) and IL-15 (10 ng/mL) for seven days. T cells were weekly restimulated with peptide-loaded DCs for several times. To test antigen-specific activity of CD4^+ T cell lines, all experiments were performed in triplicates in 96-well plates with 1×10^5 CD4^+ T cells/well. […] T cell activity was judged by IFNγ secretion in culture supernatants by ELISA after 48 hours incubation (see below and Schiavo et al., Blood 107(12):4597-605, 2006). For most experiments, unless specified, 1:5 Target:Effector ratio was used.
Detection of IFNγ by ELISA: ELISA was performed as described elsewhere (Schiavo et al., Blood 107(12):4597-605, 2006). Briefly, 96-well flat-bottom plates were coated with 2 μg/mL of anti-human IFNγ antibody (BD pharmingen, San Jose, Calif.) to capture secreted IFNγ. The captured IFNγ was detected with 0.5 μg/mL biotin-conjugated mouse anti-human IFNγ antibody and streptavidin-HRP (BD pharmingen, San Jose, Calif.). The assay was visualized with TMB peroxidase solution B (KPL, Gaithersburg, Md.) and read at OD450.

HLA-DR = test: HLA blocking of Pep-9-induced CD4+ T cell activation; type: cell-based, human
Experimental: The MHC […] inhibition assays: HLA specific mAbs or control isotype matched IgG were preincubated with peptide-pulsed DCs at concentration of 10 μg/mL for one hour at 4° C. Cells were washed with PBS, irradiated at 4500 rad and mixed with T cells at indicated ratios. To block HLA class I expression, tumor cells lines were pretreated with 10 μg/mL of anti-HLA-A,B,C antibodies (BD Pharmingen, San Jose, Calif.) for one hour at 4° C. Cells were washed with PBS and labeled with ^51Cr as indicated above. IFNγ production was determined by ELISA after 48 hour incubation as described (Schiavo et al., Blood 107(12):4597-605, 2006).
Next, to characterize HLA specificity, the CD4^+ T cell lines were stimulated with autologous DCs pulsed with Pep-9 in the presence of antibody that blocked HLA-DR, or HLA-DQ, or HLA-DP molecules. The stimulation of the SPANX-B-specific CD4^+ T cells was not affected by the presence of control antibody or antibodies that block HLA-DQ, or HLA-DP, or anti-MHC class I (FIGS. 4 A-C).

SPANX-B = test: DNA immunization of mice, serum ELISA on peptide-coated plates; type: in vivo; conditions: plates coated with peptide 5 μg/ml; FIG. 7
Experimental: Mice were intradermally immunized twice with 25 μg plasmid DNA constructs including MIP-3α-SPANX-B. Sera were tested for SPANX-B antibodies by ELISA assay in 96-well plates coated with the indicated peptides (5 μg/ml). […] The other was near the N-terminus, encoded by Pep-G1 (SEQ ID NO: 14) and Pep-2 (SEQ ID NO: 2) and Pep-3 (SEQ ID NO: 3).

[2] = tested on: murine anti-SPANX-B antibody; test: ELISA on peptide-coated plates with murine anti-SPANX-B antibody; type: binding; conditions: Ab from mice DNA immunized with SPANX-B-expressing plasmid; FIG. 1B
Experimental: FIGS. 1A-1F are digital images, a graph and a schematic diagram illustrating the specificity of antibody and expression of SPANX-B in human immortalized tumor cell lines. FIG. 1A is a digital image showing ANEA-I0117 antibody recognized SPANX-B expressed in mouse erythroleukemia RL5 cells. Western blotting results are shown with ANEA-I0117 anti-SPANX-B antibody on lysates of RL5 cells (2 μl, 5 μl and 10 μl, respectively) transiently transduced with plasmid expressing SPANX-B (SPANX-B). Control lysates were made from untransduced parental RL5 cells (Control). FIG. 1B is a graph showing murine anti-SPANX-B antibody, which was generated from mice DNA immunized with plasmid expressing SPANX-B, recognized unique SPANX-B-specific insert of SPANX-B (encoded in Pep-G1 and Pep-2 peptides), ELISA assay on plates coated with various peptides that are depicted in FIG. 1C. […] FIG. 1D is a digital image showing the expression of SPANX-B protein evaluated by Western blotting with ANEA-I0117 Ab (1:5000) in lysates of cell lines, such as HEK293 (HEK), Jurkat, CRL 7002, UACC1273, 938 Mel, CCRF-CEM (CEM), and normal human donor PBMC (upper panel). The blot was stripped and hybridized with anti-actin antibody (lower panel). FIGS. 1E and 1F are digital images obtained from an immunohistochemistry and immunofluorescent assay, respectively, of melanoma (UACC1273) and ovarian carcinoma (2008 and OVCAR3) cell lines. The cells were stained with ANEA-I0117 Ab (right and bottom panels in FIG. 1E and FIG. 1F, respectively); and control IgG (left and upper panels in FIG. 1E and FIG. 1F, respectively).
SPANX-B can be often found in the list of highly expressed genes in microarray study of human tumors, including hematological malignancies and breast cancer (see, for example, Minn et al., Nature 436(7050):518-24, 2005). To confirm this, expression was tested using two antibodies, a rabbit 3ANEA Ab and mouse SPANX-B Ab. […] The second SPANX-B Ab was produced from mice DNA immunized with SPANX-B-expressing plasmid. […] In contrast, it reacted with a second peptide Pep-2 that only represented unique for SPANX-B insert of Pep-G1 (FIGS. 1B and C).

HEK293 cells = test: CTL 51Cr release assay on HEK293 cells pulsed with Pep-2; type: cell-based, human; conditions: FIGS. 6A-C; for lysis of HLA-A2-expressing HEK293 cells pulsed with Pep-2 by CD8+ T cell lines generated to the antigen: HEK-A2, pulsed with 1 μg/ml Pep-2; for lysis of HLA-A2-negative parental HEK293 cells by CD8+ T cell lines generated to the antigen: HEK
Experimental: (§1) CTL assay and HLA blocking experiments: Tumor cell lines (target cells, 2×10^6) were incubated in 200 μL of fetal bovine serum (FBS) with 200 μCi of Na2^51CrO4 (PerkinElmer, Billerica, Mass.) for 2 hours at 37° C. Cells were washed with RPMI three times and resuspended in cRPMI with 10% FBS at 1×10^5 cells/mL. CTL assay was performed in triplicate in 96-well round bottom plates with 1×10^4/well ^51Cr-labeled target cells. The target cells were co-cultured at indicated ratios with effector cells (peptide-specific CD8^+ T cells) for 6 hours. The specific ^51Cr-release is calculated using formula: ((test sample release−spontaneous release)/(maximum release−spontaneous release))×100). Maximum release is for the target cells alone lysed with 2% Triton X-100.

[3] = tested on: SPANX-B-specific CD8^+ T cell lines; test: IFNγ secretion (ELISA) by CD8+ T cell lines stimulated with antigen-pulsed autologous DCs; type: cell-based, human; conditions: for IFNγ secretion by SPANX-B-specific CD8+ T cells on stimulation with pulsed DCs: irradiated autologous DCs, lines generated with SPANX-B protein, FIG. 5A
[4] = tested on: primary human melanoma cells; test: CTL 51Cr release assay on primary human melanoma cells; type: cell-based; conditions: for lysis of HLA-A2-expressing primary melanoma tumors by CD8+ lines generated to the antigen: Tc526, Tc624 and Tc2492; for lysis of HLA-A2-negative primary melanoma tumors by CD8+ lines generated to the antigen: Tc2547 and Tc938, FIG. 6E
Experimental: as §1

UACC1273 melanoma cells = test: CTL 6-hour 51Cr release assay on UACC1273; type: cell-based, human; conditions: SPANX-B-expressing, HLA-A2-positive target; FIGS. 6A-C
Experimental: as §1

RSVPCESNEANE (Synthetic peptide Pep-9)
IFNγ secretion by SPANX-B-specific CD4+ T cell lines, fine mapping of the epitope [1]: able to activate the SPANX-B-specific CD4^+ T cell lines
HLA restriction of recognition by human CD4+ T cells (HLA-DR): HLA-DR-restricted fashion

KRTSPEELVNDHARENRINPDQME (Synthetic peptide Pep-7)
B cell epitope recognized by sera of immunized mice (ELISA) (SPANX-B): Immunodominant B cell epitopes

ANEANEANKTMPETPTGDSDP (Synthetic peptide Pep-G2)
IFNγ secretion by CD4+ T cell lines on stimulation with pulsed DCs [1]: failed to respond
recognition of peptide by mouse SPANX-B Ab (ELISA) [2]: but not other region-specific peptides

KRSVPCESNEANEANEANKTM (Synthetic peptide Pep-G1)
IFNγ secretion by CD4+ T cell lines on stimulation with pulsed DCs [1]: activated the CD4^+ T cell lines to secrete IFNγ
IFNγ secretion by SPANX-B-specific CD4+ T cell line [1]: can be also activated to secrete IFNγ
generation of SPANX-B-specific CD4+ T cell lines using the peptide [1]: readily generated
recognition of peptide by mouse SPANX-B Ab (ELISA) [2]: preferentially recognized
B cell epitope recognized by sera of immunized mice (ELISA) (SPANX-B): Immunodominant B cell epitopes

RSAPCASAEVNE (Synthetic peptide Pep-9 Mod) [Pep-9-Mod, reference compound]
IFNγ secretion by SPANX-B-specific CD4+ T cell lines, fine mapping of the epitope [1]: did not respond

LVVRYRRNV (Synthetic peptide Pep-4)
lysis of HLA-A2-expressing HEK293 cells pulsed with Pep-2 by CD8+ T cell lines generated to the antigen (HEK293 cells): lysed HLA-A2-expressing HEK293 cells that were pulsed with Pep-2
lysis of HLA-A2-negative parental HEK293 cells by CD8+ T cell lines generated to the antigen (HEK293 cells): did not kill
recognition of SPANX-B protein-pretreated DCs by CD8+ T cells generated with peptide-pulsed DCs [3]: also recognized SPANX-B protein-pretreated DCs
IFNγ secretion by SPANX-B-specific CD8+ T cells on stimulation with pulsed DCs [3]: secreted IFNγ
lysis of HLA-A2-expressing primary melanoma tumors by CD8+ lines generated to the antigen [4]: recognized and lysed
lysis of HLA-A2-negative primary melanoma tumors by CD8+ lines generated to the antigen [4]: not affected
lysis of UACC1273 melanoma cells by CD8+ T cell lines generated to the antigen (UACC1273 melanoma cells): killed UACC1273 melanoma cells

ALWFRNHFVFGGGTK (Synthetic peptide MOPC (9)) [control murine class II peptide, reference compound]
IFNγ secretion by CD4+ T cell lines on stimulation with pulsed DCs [1]: failed to respond

ENRINPDQMEEEEFIEITTERPKK (Synthetic peptide Pep-8)
B cell epitope recognized by sera of immunized mice (ELISA) (SPANX-B): Immunodominant B cell epitopes

GQQSSVRRL (Synthetic peptide Pep-3)
recognition of peptide by mouse SPANX-B Ab (ELISA) [2]: but not other region-specific peptides
B cell epitope recognized by sera of immunized mice (ELISA) (SPANX-B): Immunodominant B cell epitopes

RSVPCESNEVNETMPETPTGDSDP (Synthetic peptide Pep-5)
IFNγ secretion by CD4+ T cell lines on stimulation with pulsed DCs [1]: activated the CD4^+ T cell lines to secrete IFNγ
IFNγ secretion by SPANX-B-specific CD4+ T cell line [1]: can be also activated to secrete IFNγ
generation of SPANX-B-specific CD4+ T cell lines using the peptide [1]: readily generated
recognition of peptide by mouse SPANX-B Ab (ELISA) [2]: failed to recognize

QPAPKKMKTSESSTILVVRYRRNV (Synthetic peptide Pep-6)
IFNγ secretion by CD4+ T cell lines on stimulation with pulsed DCs [1]: failed to respond
recognition of peptide by mouse SPANX-B Ab (ELISA) [2]: but not other region-specific peptides

B1: SPANX-B protein: Recombinant SPANX-B protein fused with maltose binding protein (MBP), produced and purified from E. coli (protein)
chain: MGQQSSVRRLKRSVPCESNEANEANEANKTMPETPTGDSDPQPAPKKMKTSESSTILVVRYRRNVKRTSPEELLNDHARENRINPDQMEEEEFIEITTERPKK
IFNγ secretion by CD4+ T cell lines on stimulation with pulsed DCs [1]: specifically recognized SPANX-B-treated DCs
lysis of HLA-A2-expressing HEK293 cells pulsed with Pep-2 by CD8+ T cell lines generated to the antigen (HEK293 cells): lysed HLA-A2-expressing HEK293 cells that were pulsed with Pep-2
lysis of HLA-A2-negative parental HEK293 cells by CD8+ T cell lines generated to the antigen (HEK293 cells): did not kill
SPANX-B-specific CD8+ T cell lines generated, donors ([3]; HLA-A2-positive peripheral blood CD8+ T cells, DCs incubated with SPANX-B protein): 3/3
IFNγ secretion by SPANX-B-specific CD8+ T cells on stimulation with pulsed DCs [3]: secreted IFNγ
lysis of HLA-A2-expressing primary melanoma tumors by CD8+ lines generated to the antigen [4]: recognized and lysed
lysis of HLA-A2-negative primary melanoma tumors by CD8+ lines generated to the antigen [4]: not affected
lysis of UACC1273 melanoma cells by CD8+ T cell lines generated to the antigen (UACC1273 melanoma cells): killed UACC1273 melanoma cells

From patent US9238684B2, “SPANX-B polypeptides and their use” (The United States of America, as represented by the …, priority 2009, dated 2016)
